# Measured values from US10265278B2, “Pharmaceutical compositions and methods utilizing a D-amino acid” (priority 2008, dated 2019).
# Where two headings read alike, the source gives them in different places.
# Tests used:
# rat kidney [1] = conditions: cited from earlier work; for Effect on nephrotoxic effects of orally administered DL-serine: DL-serine 100 mg oral, test compound subcutaneous or intramuscular, rats (Wachstein); for Protective effect against D-serine nephrotoxicity: compound injected prior to D-serine (Kaltenbach et al 1982)
# rat kidney [2] = conditions: cited from earlier work
# Sprague Dawley rats [3] = assay: Creatanine levels in rats during oral D-serine treatment with or without glutathione precursors; assay type: in vivo
# Experimental: (§1) Rats were divided into 5 separate groups of four male and four female animals each.
# (§2) In addition, a control group received only standard diet. […] Effects of various doses were investigated in a sequential manner starting with 50 mg/kg. Dose level was doubled every three days up to four doses (50 mg, 100 mg, 200 mg & 400 mg).
# (§3) Nephrotoxicity was assessed in two ways: first, by creatanine levels and second by histophathology at necropsy.
# Sprague Dawley rats [4] = assay: Histopathological examination of kidney at necropsy (tubular nephrosis grade); assay type: in vivo; conditions: histopathology at necropsy; oral gavage up to 400 mg/kg
# Experimental: as §1, §2, §3
# rat kidney [5] = conditions: rats (Dickey et al 2007), cited from earlier work
# [6] = oral NAC vs. hydration alone; cited from earlier work
smiles,measurement,setting,value
CC(N)C(=O)O (racemic) [DL-alpha-alanine],Effect on nephrotoxic effects of orally administered DL-serine,rat kidney [1],relatively ineffective
CC(N)(CO)C(=O)O (racemic) [DL-alpha-methylserine],Protective effect against D-serine nephrotoxicity,rat kidney [1],significant protective effects
CSCCC(N)C(=O)O (racemic) [DL-methionine],Effect on nephrotoxic effects of orally administered DL-serine,rat kidney [1],blocked
NC(CO)C(=O)O (racemic) [DL-serine],Renal injury induced,"rat kidney [2]; 100 mg DL-serine, rats, stock diet or diet deficient in B vitamins",acute renal necrosis
C[C@@H](O)[C@H](N)C(=O)O (racemic) [DL-threonine],Effect on nephrotoxic effects of orally administered DL-serine,rat kidney [1],partial or full prevention of toxicity
CC(C)C(N)C(=O)O (racemic) [DL-valine],Effect on nephrotoxic effects of orally administered DL-serine,rat kidney [1],relatively ineffective
CC(C)C(O)C(N)C(=O)O (racemic) [beta-hydroxy-DL-leucine],Protective effect against D-serine nephrotoxicity,rat kidney [1],significant protective effects
"OCC(S)CS (stereo not shown) [2,3 dithiopropanol]",Effect on nephrotoxic effects of orally administered DL-serine,rat kidney [1],relatively ineffective
C[C@@H](N)C(=O)O [D-alanine],Protective effect against D-serine nephrotoxicity,rat kidney [1],significant protective effects
O=C[C@H](O)[C@@H](O)[C@H](O)[C@H](O)CO [D-glucose],Effect on nephrotoxic effects of orally administered DL-serine,rat kidney [1],relatively ineffective
N[C@H](CCO)C(=O)O [D-homoserine],Protective effect against D-serine nephrotoxicity,rat kidney [1],significant protective effects
C[C@H](O)[C@@H](N)C(=O)O [D-threonine],Protective effect against D-serine nephrotoxicity,rat kidney [1],significant protective effects
"N[C@H](CO)C(=O)O [Group A, D-serine]",Increase in creatanine levels during treatment,"Sprague Dawley rats [3]; post vs. pre, in words",significant increase
same,"Creatanine level, Change mean",Sprague Dawley rats [3]; post- minus pre-treatment,0.12
same,"Creatanine level, Post-treatment mean","Sprague Dawley rats [3]; post-treatment, oral gavage, doses escalated 50, 100, 200, 400 mg/kg",0.77
same,"Creatanine level, Pre-treatment Mean","Sprague Dawley rats [3]; pre-treatment (baseline), rats, oral gavage",0.65
same,Nephrosis level (mean severity grade of tubular nephrosis),Sprague Dawley rats [4],1.91
same,Nephrotoxicity in rats lacking DAAO,rat kidney [2]; rats lacking DAAO (Maekawa et al 2005),not nephrotoxic
same,Smallest dose consistently producing renal lesions,rat kidney [2]; rats,5 mg per 100 g
N=C(N)NCCC[C@H](N)C(=O)O [L-arginine],Effect on nephrotoxic effects of orally administered DL-serine,rat kidney [1],relatively ineffective
N[C@@H](Cc1c[nH]cn1)C(=O)O [L-histidine],Effect on nephrotoxic effects of orally administered DL-serine,rat kidney [1],relatively ineffective
"CC(=O)N[C@@H](CS)C(=O)O [NAC, N-acetylcysteine]",Effect against cisplatin-induced experimental nephrotoxicity,rat kidney [5]; intravenous NAC,effective
same,Effect against cisplatin-induced experimental nephrotoxicity,rat kidney [5]; oral NAC,not found beneficial effects
same,Blockade of nephrotoxicity due to intravenous contrast,[6],not found benefit over hydration alone
CC(C)(N)C(=O)O [alpha-aminoisobutryic acid],Protective effect against D-serine nephrotoxicity,rat kidney [1],significant protective effects
CCCC(=O)O [butyric acid],Effect on nephrotoxic effects of orally administered DL-serine,rat kidney [1],relatively ineffective
N[C@@H](CCC(=O)N[C@@H](CS)C(=O)NCC(=O)O)C(=O)O [glutathione],Effect on nephrotoxic effects of orally administered DL-serine,rat kidney [1],blocked
same,Prevention of D-serine toxicity,"rat kidney [1]; intrarenal injection, equimolar with D-serine (Krug et al 2007)",toxicity can be prevented
NCC(=O)O [glycine],Effect on nephrotoxic effects of orally administered DL-serine,rat kidney [1],partial or full prevention of toxicity
CC(=O)[O-].[Na+] [sodium acetate],Effect on nephrotoxic effects of orally administered DL-serine,rat kidney [1],relatively ineffective
O=C([O-])c1ccccc1.[Na+] [sodium benzoate],Prevention of D-serine toxicity,"rat kidney [1]; intraperitoneal, large doses (Williams and Lock 2005)",toxicity can be prevented
[Cl-].[Na+] [sodium chloride],Effect on nephrotoxic effects of orally administered DL-serine,rat kidney [1],relatively ineffective
CC(O)C(=O)[O-].[Na+] (stereo not shown) [sodium lactate],Effect on nephrotoxic effects of orally administered DL-serine,rat kidney [1],partial or full prevention of toxicity
O=C([O-])CS.[Na+] [sodium thioglycollate],Effect on nephrotoxic effects of orally administered DL-serine,rat kidney [1],relatively ineffective
